Measurements reported in paper PMC10675132, “Novel Coumarin Derivatives as Potential Urease Inhibitors for Kidney Stone Prevention and Antiulcer Therapy: From Synthesis to In Vivo Evaluation” (Pharmaceuticals, 2023).
Where two headings read alike, the source gives them in different places.

Target: jack bean urease (Canavalia ensiformis, UniProt P07374)
Experiment: indophenol urease inhibition assay ([…] nm)
Assay type: biochemical

jack bean urease, sequence (P07374 whole entry, looked up): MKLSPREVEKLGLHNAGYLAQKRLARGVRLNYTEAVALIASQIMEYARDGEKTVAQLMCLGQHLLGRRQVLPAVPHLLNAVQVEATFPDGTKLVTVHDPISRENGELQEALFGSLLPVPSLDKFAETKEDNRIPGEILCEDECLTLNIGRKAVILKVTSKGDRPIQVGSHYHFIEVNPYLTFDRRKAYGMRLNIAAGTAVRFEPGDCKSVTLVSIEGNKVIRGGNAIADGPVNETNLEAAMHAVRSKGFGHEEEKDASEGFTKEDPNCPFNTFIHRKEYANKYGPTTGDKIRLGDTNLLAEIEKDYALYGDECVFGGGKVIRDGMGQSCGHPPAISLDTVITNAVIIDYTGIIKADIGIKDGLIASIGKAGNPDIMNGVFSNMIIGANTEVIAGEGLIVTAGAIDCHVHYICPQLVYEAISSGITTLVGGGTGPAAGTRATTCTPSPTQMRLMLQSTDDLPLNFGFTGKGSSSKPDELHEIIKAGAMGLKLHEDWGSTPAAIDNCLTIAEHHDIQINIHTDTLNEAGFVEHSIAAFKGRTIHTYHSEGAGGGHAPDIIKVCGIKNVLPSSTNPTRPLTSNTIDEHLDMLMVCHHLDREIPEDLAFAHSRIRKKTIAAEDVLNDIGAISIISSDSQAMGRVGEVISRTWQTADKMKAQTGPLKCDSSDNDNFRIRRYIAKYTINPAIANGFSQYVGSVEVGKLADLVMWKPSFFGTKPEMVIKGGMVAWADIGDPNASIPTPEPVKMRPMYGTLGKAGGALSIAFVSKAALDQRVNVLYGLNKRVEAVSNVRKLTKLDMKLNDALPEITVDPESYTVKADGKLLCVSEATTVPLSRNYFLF

SMILES	IC50 [nM]	IC50 (read-out: IC50 ± SEM) [nM]
O=c1cc(/N=C/c2cccc([N+](=O)[O-])c2)c2ccccc2o1 [3a, (E)-4-(3-nitrobenzylideneamino)-2H-chromen-2-one]	412	–
O=c1cc(/N=C/c2ccc([N+](=O)[O-])cc2)c2ccccc2o1 [5a, (E)-4-(4-nitrobenzylideneamino)-2H-chromen-2-one]	322	–
Cc1ccc(O)c(/C=N/c2cc(=O)oc3ccccc23)c1 [7a, (E)-4-(2-hydroxy-5-methylbenzylideneamino)-2H-chromen-2-one]	112	–
NC(N)=S [Thiourea, reference compound]	–	140
